Measurements as given in patent US20240335539A1, “MODULATION OF BCL-2 TO ENHANCE CHIMERIC ANTIGEN RECEPTOR CANCER IMMUNOTHERAPY EFFICACY” (The Trustees of the University of Pennsylvania, priority 2021, published 2024).
Read-outs that look alike come from different tables or passages of the source.

Key:
[1] = tested on: MINO; assay: Venetoclax-mediated killing, bioluminescence cytotoxicity assay, 48 hours; format: cell-based
Experimental: (§1) FIGS. 2A-2F illustrate the finding that venetoclax and CART19 as a single agent induces concentration- and dose-dependent tumor killing. Luciferase-expressing cancer cells (5×10^4 cells/well) were co-cultured with either various concentrations of venetoclax or different doses of CART19 for 48 hours and luminescence was used to quantify the tumor killing. After 48 hours, luciferin was added to the cells and luminescence was detected using a luminometer (Biotek Synergy H4). Tumor killing (%) was calculated using the formula: (sample−maximal tumor growth)/(lysis control−maximal tumor growth)×100. […] E:T=ratio of effector to target. EC50: Half-maximal effective concentration. CART19: anti-CD19 CAR T cell.
(§2) Cell lines (MINO, Z-138, MAVER, OCI-Ly18, SU-DHL-4, NALM6, MOLM-14 and KG-1) were engineered to express click beetle green, and cell survival was measured using bioluminescence quantification. D-luciferin potassium salt (Perkin-Elmer) was added to cell cultures (final concentration 15 μg/mL) and incubated at 37° C. for 10 minutes. Bioluminescence signal was detected using a BioTek Synergy H4 imager, and signal was analyzed using BioTek Gen5 software. Percent specific lysis was calculated using a control of target cells without effectors. Cytotoxicity assays were established as previously described (Singh, et al., Cancer Discovery 2020; 10(4):552-67) with the addition of vehicle or venetoclax.
(§3) CART19 cells were co-cultured with either vehicle (DMSO) or venetoclax and cytotoxicity was measured at 48 hours. […] This effect was further confirmed using primary NHL cells (MCL) (FIG. 1D). […] Furthermore, to confirm the importance of the BCL-2 pathway in resistance to CART killing, overexpression of BCL-2 was induced in B-cell lymphoma and leukemia cell lines (MINO, SU-DHL-4, and NALM-6) that lack genetic alterations of BCL-2. BCL-2 overexpression led to a significant reduction of tumor killing by CART cell in all models, in particular the venetoclax medium sensitive model (MINO) (FIGS. 4A-4C).

[2] = tested on: NALM6; assay: as above; format: cell-based; details: Homo sapiens, NALM-6, read-out: half-maximal inhibitory concentration (IC50)
Experimental: as §1, §2, §3

[3] = tested on: OCI-Ly18; assay: as above; format: cell-based; details: Homo sapiens, read-out: half-maximal inhibitory concentration (IC50)
Experimental: as §1, §2, §3

[4] = tested on: NALM6; assay: NALM6 xenograft model; format: in vivo; details: CART19 with or without venetoclax 100 mg/kg daily, oral gavage for five weeks
Experimental: Either venetoclax (100 mg/kg) or vehicle were administered to the mice via oral gavage daily. To monitor the survival of CART in vivo, mouse blood ([…]) was collected from submandibular vein of mouse on day 15 after CART infusion and measured the absolute number of human CD3+ T cells in mouse blood using flow cytometry. Tumor volume was monitored by measuring luminescen intensity in mouse by IVIS system. […] One-way ANOVA with post-hoc Tukey test was performed. […] All data represent mean±SD. *P<0.05. ns: not significant. UTD: untransduced T cell. CART19: anti-CD19 CAR T cell. CART19-BCL2(WT): BCL-2(WT) overexpressing anti-CD19 CAR T cell.
All data represent mean±SD.
To investigate this hypothesis, the expansion and persistence of CART19 cells in the peripheral blood of NSG mice treated with CART19 plus venetoclax or CART19 alone was analyzed using flow cytometry. […] To test whether prolonged exposure to venetoclax leads to CART cell toxicity, an in vitro venetoclax toxicity assay was performed using CART cells manufactured from 8 different T cell donors. […] In order to discern whether the reduced survival was due to increased apoptosis or reduction of proliferation, the caspase 3/7 activity in CART19 was assessed in the presence or absence of venetoclax. […]

[5] = tested on: CART19; assay: In vitro venetoclax CART cell toxicity assay; format: cell-based, human; details: for IC50: Homo sapiens
Experimental: (§4) CART cells were combined with target cancer cells at an E:T ratio of 0.25:1, and co-cultures were evaluated for absolute count of T cells and cancer cells by flow cytometry using CountBright absolute counting beads (ThermoFisher) every three days. Cultures were maintained at a concentration of 1×10^6 total cells/mL. To monitor their differentiation status, CART cells were harvested on day 0, 9, and 18. Next, CART cells were stained with anti-CCR7 and anti-CD45RA antibodies for flow cytometric analysis. CART cells were re-stimulated by PMA/Ionomycin on day 18 after initial stimulation in order to evaluate the anti-tumor activity of long-survived CART cells.
To investigate this hypothesis, the expansion and persistence of CART19 cells in the peripheral blood of NSG mice treated with CART19 plus venetoclax or CART19 alone was analyzed using flow cytometry. […] To test whether prolonged exposure to venetoclax leads to CART cell toxicity, an in vitro venetoclax toxicity assay was performed using CART cells manufactured from 8 different T cell donors. […] Of note, the level of toxicity to CART cells varied among the different T cell donors, likely due to different apoptotic priming statuses at baseline. […] In order to discern whether the reduced survival was due to increased apoptosis or reduction of proliferation, the caspase 3/7 activity in CART19 was assessed in the presence or absence of venetoclax. […] Overall, these studies indicate that the higher doses of venetoclax required to suppress neoplasms with venetoclax resistance can cause apoptosis in CART19 cells. However, the BCL-2 pathway is a critical node for cancer resistance to CART immunotherapy and venetoclax can be toxic to CART cells. Thus, a different approach to overcome the limitation of targeting BCL-2 combined with CART immunotherapy was needed.
(§5) Correct expression of the transgenes in target cells was confirmed by intracellular staining for CAR19 and BCL-2 using flow cytometry (FIG. 10B). […] Additionally, venetoclax CART cell toxicity assays were performed to evaluate whether the mutant BCL-2 could provide resistance to venetoclax.

[6] = tested on: CART19-BCL-2(WT); assay: In vitro venetoclax CART cell toxicity assay; format: cell-based; details: Homo sapiens; venetoclax on CART19-BCL-2(WT); long-term in vitro assay; n=3 donors; read-out: average IC50 value (CART cell survival)
Experimental: as §4, §5

[7] = patient treated with venetoclax (Jones et al. 2016); cited from earlier work
[8] = tested on: MINO; assay: MINO xenograft model; details: venetoclax 50 mg/Kg
Experimental: For the MINO model, CART cells (5×10^4) were infused 14 days after luciferase+MINO cells were implanted (i.v. injection). […] Either vehicle or venetoclax (50 mg/kg/daily) was administrated for 5 weeks via oral gavage. […] All data represent mean±SD.
CART cells (5×10^4) were infused 14 days after luciferase+MINO cell i.v. injection. […] All data represent mean±SD. One-way ANOVA with posthoc Tukey tests was performed for all comparisons.
Six- to 10-week-old NOD SCID γ chain −/− (NSG) mice were obtained from the Stem Cell & Xenograft Core at the University of Pennsylvania and maintained in pathogen-free conditions. […] For the systemic tumor model, 1×10^6 of either NALM6 or MINO were administrated to NSG mice by tail vein injection.

[9] = tested on: NALM6; assay: Targeted pro-apoptotic small molecule screening with CART19 against NALM6, killing by luminescence at 48 hours; details: drug 100 and 1000 nM with CART19
Experimental: Killing of NALM6 cells was quantified at 48 hours by luminescence. Drug screening of pro-apoptotic small molecules was performed with two concentrations (100 and 1000 nM). […] Two concentrations of 29 drugs were used (100 nM and 1000 nM). Killing of NALM6 cells was assessed at 48 hours by luminescence. […] UTD: untransduced T cells; CART19: anti-CD19 CAR T cell; MCL: mantle cell lymphoma; E:T=ratio of effector to target; IAP: Inhibition of apoptosis protein.
CART19 and NALM6 (luciferase+) cells were seeded at a ratio of 0.08E:1T (i.e., 600 CART: 7000 NALM6) per well in 25 μl of growth medium (RPMI1640+10% FBS+1% Pen-strep+1% glutamine) of 384-well Corning 3570 microplate using a Multidrop™ Combi Reagent Dispenser (Thermo Scientific). Following cell seeding, drugs (50 nL) were transferred to assay plates using a 50 nL slotted pin tool (V&P Scientific) and a JANUS Automated Workstation (Perkin Elmer). Compounds/drugs were added to a final concentration of 1 μM in 0.2% DMSO. Columns 1 and 23 were treated with 0.2% DMSO (negative control). […] Luminescence was measured on an EnVision Xcite Multilabel Plate Reader (PerkinElmer), using the ultrasensitive luminescence measurement technology.
In order to screen pro-apoptotic small molecules that can enhance CART cell killing, a targeted screening assay was performed. […] Tumor killing was measured by luminescence at 48 hours.

## CC1(C)CCC(CN2CCN(c3ccc(C(=O)NS(=O)(=O)c4ccc(NCC5CCOCC5)c([N+](=O)[O-])c4)c(Oc4cnc5[nH]ccc5c4)c3)CC2)=C(c2ccc(Cl)cc2)C1 [venetoclax]
[1]; Homo sapiens, MINO, 48 hours, read-out: half-maximal inhibitory concentration (IC50)
  IC50: 68.2 nM
[1]; MINO vs OCI-Ly18
  IC50 for MINO relative to OCI-Ly18: 5 fold
[2]
  IC50: 1300 nM
[3]
  IC50: 18.5 nM
[4]
  Mice showing tumor relapse: 40%
[5]; 5 days of co-culture, CART cells from 8 donors
  Survival of CART19 cells: significant reduction in the survival of CART19 cells
[5]; healthy donor-derived CAR T cell, read-out: average value of the IC50 concentration
  IC50: 600 nM
[5]; venetoclax on CART19, long-term in vitro assay, n=3 donors, read-out: average IC50 value (CART cell survival)
  IC50: 131 nM
[5]; venetoclax present vs absent
  Caspase 3/7 activation in CART cells: significant caspase 3/7 activation in CART cells
[6]
  IC50: 998 nM
[7]
  physiological concentration in a patient: around 2.3 M
[8]
  Toxicity to CART cells in vivo: toxic to CART19
[9]
  Enhancement of CART19 killing / CART cell cytotoxicity: strong enhancement of CART19 killing
